This is an account of results in patent publication US6323219A, “Methods for treating immunomediated inflammatory disorders” (Ortho-McNeil Pharmaceutical, Inc., priority 1999, dated 2001).

The nature of data set [1]: in vivo. Also noted: species or system male rats (Long Evans). The note with it: rat, iv. How it is done:
Since the compounds of the formula (l) are also potent thrombin inhibitors (see U.S. Pat. No. 5,523,308), an ex vivo thrombin assay was conducted to determine the duration of action of the compounds of Formula I. For this i.v. assay male rats (Long Evans, 350-500 g) were implanted with a teflon cannulae via the femoral artery while under anesthesia (pentobarbital i.p., 35 mg/kg). After surgery, the animals were individually housed in standard cages, fed with rat chow (Hanlan, #8604) and continuously infused with physiological saline to maintain arterial patency, (0.5 mL/h, intra arterial) using a spring-shielded swiveling tether connected to an infusion system. The animals were allowed to recover for at least 24 h after the surgical procedure.
A sample of blood was drawn from the animals 15 min before dosing with the inhibitor (0.25 mL blood is drawn into a syringe containing 0.025 mL of Sigma sodium citrate). The test compound was dispersed in water and delivered to the animal (0.25 mL) via the femoral vein. The inhibitor was given at a concentration (mg/mL) which produced 80% inhibition of VO in a plasma sample at 5 min after infusion. Blood was drawn from the arterial line (blood:sodium citrate, 0.25/0.025 mL ) at regular intervals after dosing (5, 10, 15, 30, 60 and 120 min) and placed in a centrifuge tube. A plasma sample was obtained by centrifuging the blood at 10,000 rpm for 5 min. This sample is analyzed for thrombin inhibition using the chromogenic assay, described below.
The rate of increase in absorbance at 405 nm of synthetic peptides (50 μM Spectozyme® TH (H-D-HHT-Ala-Arg-pNA-2AcOH), American Diagnostica) is measured in the presence of plasma with a microplate reader (Molecular Devices) at 37° C. using an aqueous buffer (10 mM Tris, 10 mM Hepes, 150 mM NaCl, 0.1% PEG; pH 7.4). The buffer was added to the plasma samples (1:1) dilution prior to delivery to the microplate (1:5 and 1:50 for final plasma dilutions of 1:10 and 1:100 respectively) followed by the enzyme (1 nM human α thrombin). Datum was collected over a 30 min period and the initial rate of substrate hydrolysis (V0 (mOD/min)) was calculated with an analysis program (Softmax, Molecular Devices).
The time to half plasma elimination (t 1/2) was calculated from the slope of VO vs. time, using the following equation: […]. These datum are presented in Table L. In Table L, the compound # corresponds to the compound number described in U.S. Pat. No. 5,523,308.

Data set [2] addresses human Lung Tryptase. Put plainly: Tryptase IC50 Method. The settings on record: 37° C., 1.0 nM enzyme, 500 μM substrate. It is filed as biochemical. How it is done:
The enzyme reaction is started by the addition of enzyme ([E]: 1.0 nM human Lung Tryptase; Cortex Biochem CP3033). Data is collected over a period of 30 min. and the initial rate of substrate hydrolysis (Vo (mOD/min)) is calculated. Inhibition is calculated by comparing to wells containing no inhibitor (vehicle) and IC50 s are determined using a four parameter fit logistics model. […] The enzyme reaction is started by the addition of enzyme ([E]: 10.0 nM Human Skin Chymase; Cortex Biochem CPl 129). Data is collected over a period of 30 min. and the initial rate of substrate hydrolysis (Vo (mOD/min)) is calculated. Inhibition is calculated by comparing to wells containing no inhibitor (vehicle) and IC50 s are determined using a four parameter fit logistics model. Chymase 10 μM Screen Method: The optical density at 405 nm due to hydrolysis of synthetic chromogenic peptide substrates ([S]: 500 μM Suc-Ala-Ala-Pro-Phe-pNA; Bachem L-1400) is measured in the presence and absence of inhibitor compounds of formula (I) with a microplate reader at room temperature. The enzyme reaction is started by the addition of enzyme ([E]: 5.0 nM Human Skin Chymase; Cortex Biochem CP1129), and 3 hours following that addition data is collected. After subtracting background (no enzyme addition), inhibition is calculated by comparing to wells containing no inhibitor (vehicle).

Data set [3] deals with T1, Human Skin Chymase (Homo sapiens, UniProt P23946).
T1 construct: purchased Cortex Biochem CP1129; host or cells: human skin
T1 sequence (P23946 22-247): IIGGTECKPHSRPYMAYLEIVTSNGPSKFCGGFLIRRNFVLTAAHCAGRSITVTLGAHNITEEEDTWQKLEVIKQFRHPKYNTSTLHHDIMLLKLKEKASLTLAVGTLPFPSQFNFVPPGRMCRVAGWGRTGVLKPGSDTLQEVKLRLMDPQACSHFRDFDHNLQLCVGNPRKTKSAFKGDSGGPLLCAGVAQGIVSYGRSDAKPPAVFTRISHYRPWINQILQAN
Put plainly: Chymase 10 μM Screen Method. It counts as biochemical. The settings on record: 10 μM, room temperature, 5.0 nM enzyme, 3 hours; read-out: Chymase % Inhibition (10 μM). How it is done: The enzyme reaction is started by the addition of enzyme ([E]: 1.0 nM human Lung Tryptase; Cortex Biochem CP3033). Data is collected over a period of 30 min. and the initial rate of substrate hydrolysis (Vo (mOD/min)) is calculated. Inhibition is calculated by comparing to wells containing no inhibitor (vehicle) and IC50 s are determined using a four parameter fit logistics model. […] Data is collected over a period of 30 min. and the initial rate of substrate hydrolysis (Vo (mOD/min)) is calculated. Inhibition is calculated by comparing to wells containing no inhibitor (vehicle) and IC50 s are determined using a four parameter fit logistics model. […] The enzyme reaction is started by the addition of enzyme ([E]: 5.0 nM Human Skin Chymase; Cortex Biochem CP1129), and 3 hours following that addition data is collected. After subtracting background (no enzyme addition), inhibition is calculated by comparing to wells containing no inhibitor (vehicle).

Data set [4] has as its system human primary melanocytes. In words: Pigmentation of primary melanocyte cultures. It is filed as cell-based. The note with it: for level of pigmentation, human primary melanocytes: melanocytes alone.
The test system of data set [5] is S91 cells. Put plainly: Pigmentation of choleratoxin-induced S91 cells. It counts as cell-based, mouse. The text has this: Indeed, the level of pigmentation of human primary melanocytes or choleratoxin-induced S91 cells, which is reduced by hydroquinone and benzaldehyde, was not affected by Compound I.
Data set [6] deals with MelanoDerm human epidermal equivalents. The settings on record: MelanoDerm equivalents are known to respond; cited from earlier work.
For data set [7] the test system is unchanged. In words: Pigmentation of MelanoDerm epidermal equivalents (DOPA, H&E or F&M staining, image analysis). The settings on record: for pigmentation/melanogenesis in epidermal equivalents: MelanoDerm, three days of treatment, stained on fourth day, FIG. 1B, FIG. 2, FIG. 3. It is filed as cell-based.
For data set [8], the system named is Yucatan swine skin. In words: Yucatan swine skin pigmentation, topical, visual/chromameter/histology.
Text: Each compound was applied to two sites on the pig twice daily, five days per week for eight weeks. After eight weeks of treatment, chromameter measurements were taken.
Two sites per concentration were placed on opposite sides of the swine dorsum. Chromameter measurements were taken before treatment started and every two weeks thereafter. Pictures were taken periodically and at the end of the experiment.
Data set [9] has as its system Co-cultures (no K-M contact). Put plainly: Pigmentation of keratinocyte-melanocyte co-cultures without K-M contact. It counts as cell-based, human. The settings on record: Table D; three days, DOPA stained on fourth day. The text has this: Since PAR-2 is not expressed in melanocytes, we tested the possible requirement of keratinocyte-melanocyte interactions for the depigmenting effect of Compound I. Primary melanocyte cultures were compared to identical cultures plated under epidermal equivalents (EpiDerm, lacking melanocytes) to create a co-culture with no contact between keratinocytes and melanocytes. These were also compared to MelanoDerm equivalents, where melanocytes are present in the basal layer of the equivalent. Cultures were treated for three days with Compound I, with the PAR-2 agonist SLIGRL, and with the TR agonist TFLLRNPNDK, as set forth in Table D, and DOPA stained on the fourth day. In Table D, keratinocytes are indicated by "K", melanocytes are indicated by "M" and lack of keratinocyte-melanocyte contact is indicated as "no K-M contact". […] In MelanoDerm equivalents, compound I reduced and SLIGRL induced pigmentation, while TFLLRNPNDK had no effect.

The mark [10] stands for this setting: Table D, three days, DOPA stained on fourth day.

“Also recorded” adds a separate entry of the source. Bounds are passed on as bounds.

As a reminder, the half-life is the time needed for the level to fall by half in the phase considered. The low end stands for rapid decline, the high end for slow decline. Take `N=C(N)NCCC[C@H](NC(=O)[C@@H]1CCCN1C(=O)CC(c1ccccc1)c1ccccc1)C(=O)c1nc2ccccc2s1` [Compound 3]: the half-life in data set [1] was found to be 6 min.

Molecule `CN[C@H](Cc1ccccc1)C(=O)N1CCC[C@H]1C(=O)N[C@@H](CCCNC(=N)N)C(=O)c1nccs1` [Compound 4] displayed a half-life in data set [1] of 16 min.

Molecule `CN[C@H](Cc1ccccc1)C(=O)N1CCC[C@H]1C(=O)N[C@@H](CCCN=C(N)N)C(=O)c1nc2ccccc2o1` [Compound 5] registered a half-life in data set [1] of 18 min.

Usually IC50 stands for the concentration at which inhibition is half-maximal. In general, inhibition refers to the share of the control response that was lost under treatment. In turn, `CN[C@H](Cc1ccccc1)C(=O)N1CCC[C@H]1C(=O)N[C@@H](CCCNC(=N)N)C(=O)c1nc2ccc(C(=O)OC)cc2s1` [Compound 12] yielded an IC50 in [2] of 1.7 nM. Also, the inhibition at 10 µM in data set [3] came out at 2%. This molecule also showed a half-life in data set [1] of 43 min.

Molecule `CN[C@H](Cc1ccccc1)C(=O)N1CCC[C@H]1C(=O)N[C@@H](CCCNC(=N)N)C(=O)c1nc2ccc(F)cc2s1` [Compound 17] registered an IC50 in [2] of 11.1 nM. Further, in [3], the inhibition at 10 µM worked out at 3%. The half-life in [1] was found to be 8 min.

As to `CN[C@H](Cc1c(F)c(F)c(F)c(F)c1F)C(=O)N1CCC[C@H]1C(=O)N[C@@H](CCCNC(=N)N)C(=O)c1nc2ccccc2s1` [Compound 30], the 50% inhibitory concentration (IC50) in data set [2] was 2.7 nM. In addition, the inhibition at 10 µM in [3] worked out at 6%. The molecule also registered a half-life in [1] of 6 min.

In data set [2], `N=C(N)NCCC[C@H](NC(=O)C1CCCC1)C(=O)c1nc2ccccc2s1` [Compound 31] had an IC50 of 828 nM. For the same molecule, the inhibition at 10 µM in data set [3] was found to be 0%.

For the molecule `CN[C@H](Cc1ccccc1)C(=O)N1CCC[C@H]1C(=O)N[C@@H](CCCNC(=N)N)C(=O)c1nc2ccccc2[nH]1` [Compound 35], in [2], the IC50 came out at 15.1 nM. For the same molecule, the inhibition at 10 µM in data set [3] was 4%. This molecule also came in with a half-life in data set [1] of 11 min.

As for `CCCC[C@H](NC(=O)[C@@H]1CCCN1C(=O)[C@@H](Cc1ccccc1)NC)C(=O)c1nc2ccccc2s1` [Compound 39], the concentration for half-maximal inhibition (IC50) in data set [2] was greater than 10000 nM. The inhibition at 10 µM in data set [3] was 37%.

Regarding `CN[C@H](Cc1ccccc1)C(=O)N1CCC[C@H]1C(=O)N[C@@H](CCCNC(=N)N)C(=O)c1nc2c(ccc3ccccc32)s1` [Compound 52], in data set [2], the half-inhibitory concentration (IC50) was 33.7 nM. Besides, the inhibition at 10 µM in [3] was found to be 4%. The same molecule registered a half-life in [1] of 8 min.

On to `CN[C@H](Cc1ccccc1)C(=O)N1CCC[C@H]1C(=O)N[C@@H](CCCOC)C(=O)c1nc2ccccc2s1` [Compound 53], for which, in data set [3], the inhibition at 10 µM turned out to be 5%.

For `O=Cc1ccccc1` [benzaldehyde], the “level of pigmentation, human primary melanocytes” value in data set [4] is given as “reduced”. In addition, the “level of pigmentation, choleratoxin-induced S91 cells” value in data set [5] is “reduced”. The “pigmentation of epidermal equivalents (known response to whitening agents)” value in [6] is recorded as “reducing pigmentation”.

For the molecule `Oc1ccc(O)cc1` [hydroquinone], the “level of pigmentation, human primary melanocytes” value in [4] is given as “reduced”. Also, the “level of pigmentation, choleratoxin-induced S91 cells” value in data set [5] is “reduced”. In addition, in data set [6], the “pigmentation of epidermal equivalents (known response to whitening agents)” value is “reducing pigmentation”.

For the molecule Hirudin, the “pigmentation/melanogenesis in epidermal equivalents” value (from here on “pigmentation/melanogenesis”) in [7] is “no effect on pigmentation”.

For the molecule SFLLRN [reference compound], the “pigmentation/melanogenesis” value in [7] was “trend of lightening or reducing pigmentation”. Besides, the “effect on skin pigmentation” value in [8] (10 μM, twice daily, five days per week, eight weeks) is reported as “no significant effects”.

For TFLLRNPNDK [reference compound], the “pigmentation/melanogenesis” value in data set [7] is “no effect on pigmentation”. The “effect on pigmentation, MelanoDerm (K-M contact)” value in [7] (setting [10]) is given as “no effect”. In addition, in data set [4] (setting [10]), the “effect on pigmentation, Melanocytes (no K)” value is on record as “no effect”. The “effect on pigmentation, Co-cultures (no K-M contact)” value in [9] was “no effect”.

B1: Trypsin: Activates TR and PAR-2 (protein, UniProt P00760 24-246, looked up)
Serine protease 1: IVGGYTCGANTVPYQVSLNSGYHFCGGSLINSQWVVSAAHCYKSGIQVRLGEDNINVVEGNEQFISASKSIVHPSYNSNTLNNDIMLIKLKSAASLNSRVASISLPTSCASAGTQCLISGWGNTKSSGTSYPDVLKCLKAPILSDSSCKSAYPGQITSNMFCAGYLEGGKDSCQGDSGGPVVCSGKLQGIVSWGSGCAQKNKPGVYTKVCNYVSWIKQTIASN
Regarding B1, the “pigmentation, dose-response” value in [7] (increasing concentrations, SLIGRL 0, 10 and 50 μM, Compound I 0.1 μM to 1 μM, FIG. 4A) was “has the same effect”.

B2: STI: soybean trypsin inhibitor, available from Sigma (protein, UniProt P01070 25-205, looked up)
Trypsin inhibitor A: DFVLDNEGNPLENGGTYYILSDITAFGGIRAAPTGNERCPLTVVQSRNELDKGIGTIISSPYRIRFIAEGHPLSLKFDSFAVIMLCVGIPTEWSVVEDLPEGPAVKIGENKDAMDGWFRLERVSDDEFNNYKLVFCPQQAEDDKCGDIGISIDHDDGTRRLVVSKNKPLVVQFQKLDKESL
B2: the “pigmentation/melanogenesis” value in data set [7] is given as “very effective in inhibiting melanogenesis; also recorded: reduces pigmentation”. The “visual lightness of treated sites versus surrounding skin” value in data set [8] (twice a day, five days a week, at seven weeks) was “visually lighter than the surrounding skin”.
